According to publication PMC6265310, “Purification, Characterization and in vitro Evaluation of Polymyxin A From Paenibacillus dendritiformis: An Underexplored Member of the Polymyxin Family” (Frontiers in Microbiology, 2018):
Values after ≈ are worked out from the molar mass of the structure shown. Where a SMILES comes first, the peptide text is derived from it. Bridges are numbered along the chain shown (N, C = ends). [ ]: non-standard residue; d: D form. The star is where a group is joined. Heptanoyl(6-Me) = CC(C)CCCCC(=O)*; dDab = NCC[C@@H](N)C(=O)O; Dab = NCC[C@H](N)C(=O)O

How the values were obtained:
K. Pneumoniae 1428 = details: 1428
E. coli 7534 = details: 7534
E. coli 7932 = details: 7932
K. Pneumoniae B8 = details: B8
K. Pneumoniae 1573 = details: 1573
K. Pneumoniae GMCH12 = details: GMCH12
P. aeruginosa ATCC 27853 = assay: Time-kill kinetics; format: cell-based; details: P. aeruginosa ATCC 27853, 2xMIC
[1] = tested on: Klebsiella pneumoniae ATCC 29665; details: ATCC 29665
E. coli 7210 = details: 7210
K. Pneumoniae GMCH10 = details: GMCH10
K. Pneumoniae GMCH04 = details: GMCH04
E. coli 3185 = details: 3185
A. baumannii GMCH 14 = details: GMCH 14
A. baumannii AB1 = details: AB1
[2] = tested on: Bacillus subtilis ATCC 6633; details: ATCC 6633
P. aeruginosa PA1 = details: PA1
E. coli ATCC 25922 = assay: NPN uptake assay, outer membrane permeabilization; format: cell-based; details: E. coli ATCC 25922, 10 and 20 μg/ml, 1 h, compared with polymyxin B
E. coli 14504 = details: 14504
P. aeruginosa PA5 = details: PA5
P. aeruginosa PA4 = details: PA4
[3] = tested on: human leukemic monocyte cell line (THP-1 ATCC TIB-202); format: cell-based
Method: (§1) 3-(4,5-dimethylthiazol-2-yl)-2,5-diphenyltetrazolium bromide (MTT) assay was employed to examine the cytotoxicity against human leukemic monocyte cell line (THP-1 ATCC TIB-202) and human embryonic kidney cell line (HEK293 ATCC CRL-1573) as explained by [Kaur et al. (2017)]. Toxicity of both compounds was compared with polymyxin B and colistin at concentrations ranging from 62.5 to1000 μg/ml.

[4] = tested on: human embryonic kidney cell line (HEK293 ATCC CRL-1573); format: cell-based
Method: as §1

E. coli 13425 = details: 13425
[5] = tested on: Pseudomonas aeruginosa ATCC 27853; details: ATCC 27853
P. aeruginosa PA3 = details: PA3
[6] = tested on: Enterococcus faecalis ATCC 51299; details: ATCC 51299
P. aeruginosa PA6 = details: PA6
[7] = tested on: Escherichia coli ATCC 35218; details: ATCC 35218
[8] = tested on: Vibrio parahaemolyticus ATCC17802
E. coli 14363 = details: 14363
A. baumannii AB2 = details: AB2
K. Pneumoniae 827 = details: 827
E. coli 9062 = details: 9062
A. baumannii GMCH18 = details: GMCH18
[9] = tested on: Klebsiella pneumoniae ATCC 700603; details: ATCC 700603
[10] = tested on: Klebsiella pneumoniae ATCC- BAA 2146; details: BAA 2146
E. coli 14084 = details: 14084
K. Pneumoniae GMCH 16 = details: GMCH 16
P. aeruginosa PA2 = details: PA2
A. baumannii GMCH05 = details: GMCH05
[11] = tested on: Acinetobacter baumannii ATCC 19606; details: ATCC 19606
[12] = tested on: Vibrio cholerae MTCC 3906
[13] = tested on: clinical MDR isolates (E. coli, K. pneumoniae, A. baumanii, P. aeruginosa); format: cell-based; details: in 25 of 31 clinical isolates
P. aeruginosa GMCH06 = details: GMCH06
[14] = tested on: Klebsiella pneumoniae ATCC BAA1706; details: ATCC BAA1706
[15] = tested on: Escherichia coli ATCC 25922; details: ATCC 25922
[16] = tested on: Staphylococcus aureus ATCC 25923; details: ATCC 25923
K. Pneumoniae GMCH13 = details: GMCH13
K. Pneumoniae GMCH11 = details: GMCH11

SMILES: CC(C)CCCCC(=O)N[C@@H](CCN)C(=O)N[C@H](C(=O)N[C@H](CCN)C(=O)N[C@H]1CCNC(=O)[C@H]([C@@H](C)O)NC(=O)[C@H](CCN)NC(=O)[C@H](CCN)NC(=O)[C@H]([C@@H](C)O)NC(=O)[C@@H](CC(C)C)NC(=O)[C@H](CCN)NC1=O)[C@@H](C)O [P1, polymyxin A2] ({Heptanoyl(6-Me)}-[Dab]T[dDab][Dab][Dab][dL]T[Dab][Dab]T; lactam 4-C)
- MIC (K. Pneumoniae 1428): 1 µg/mL (≈ 0.875 µM)
- MIC (E. coli 7534): 0.25 µg/mL (≈ 0.219 µM)
- MIC (E. coli 7932): 0.25 µg/mL (≈ 0.219 µM)
- MIC (K. Pneumoniae B8): 0.5 µg/mL (≈ 0.437 µM)
- MIC (K. Pneumoniae 1573): 0.5 µg/mL (≈ 0.437 µM)
- MIC (K. Pneumoniae GMCH12): 0.5 µg/mL (≈ 0.437 µM)
- time to kill (P. aeruginosa ATCC 27853): 4 h
- MIC [1]: 0.5 µg/mL (≈ 0.437 µM)
- MIC (E. coli 7210): 0.25 µg/mL (≈ 0.219 µM)
- MIC (K. Pneumoniae GMCH10): 1 µg/mL (≈ 0.875 µM)
- MIC (K. Pneumoniae GMCH04): 0.25 µg/mL (≈ 0.219 µM)
- MIC (E. coli 3185): 0.25 µg/mL (≈ 0.219 µM)
- MIC (A. baumannii GMCH 14): 0.5 µg/mL (≈ 0.437 µM)
- MIC (A. baumannii AB1): 0.5 µg/mL (≈ 0.437 µM)
- MIC [2]: 16 µg/mL (≈ 14 µM)
- MIC (P. aeruginosa PA1): 1 µg/mL (≈ 0.875 µM)
- NPN uptake (fluorescence intensity) (E. coli ATCC 25922): slightly higher NPN uptake
- MIC (E. coli 14504): 0.25 µg/mL (≈ 0.219 µM)
- MIC (P. aeruginosa PA5): 1 µg/mL (≈ 0.875 µM)
- MIC (P. aeruginosa PA4): 1 µg/mL (≈ 0.875 µM)
- IC50 [3]: approximately 1000 μg/ml
- IC50 [4]: > 1000 µg/mL
- MIC (E. coli 13425): 0.25 µg/mL (≈ 0.219 µM)
- MIC [5]: 0.5 µg/mL (≈ 0.437 µM)
- MIC (P. aeruginosa PA3): 1 µg/mL (≈ 0.875 µM)
- MIC [6]: >16 µg/mL
- MIC (P. aeruginosa PA6): 1 µg/mL (≈ 0.875 µM)
- MIC [7]: 0.25 µg/mL (≈ 0.219 µM)
- MIC [8]: 1 µg/mL (≈ 0.875 µM)
- MIC (E. coli 14363): 0.25 µg/mL (≈ 0.219 µM)
- MIC (A. baumannii AB2): 1 µg/mL (≈ 0.875 µM)
- MIC (K. Pneumoniae 827): 0.5 µg/mL (≈ 0.437 µM)
- MIC (E. coli 9062): 0.25 µg/mL (≈ 0.219 µM)
- MIC (A. baumannii GMCH18): 0.25 µg/mL (≈ 0.219 µM)
- MIC [9]: 1 µg/mL (≈ 0.875 µM)
- MIC [10]: 0.5 µg/mL (≈ 0.437 µM)
- MIC (E. coli 14084): 0.25 µg/mL (≈ 0.219 µM)
- MIC (K. Pneumoniae GMCH 16): 0.5 µg/mL (≈ 0.437 µM)
- MIC (P. aeruginosa PA2): 1 µg/mL (≈ 0.875 µM)
- MIC (A. baumannii GMCH05): 1 µg/mL (≈ 0.875 µM)
- MIC [11]: 0.5 µg/mL (≈ 0.437 µM)
- MIC [12]: >16 µg/mL
- fold less MIC than the other polymyxins [13]: 2–4 fold
- MIC (P. aeruginosa GMCH06): 0.5 µg/mL (≈ 0.437 µM)
- MIC [14]: 0.5 µg/mL (≈ 0.437 µM)
- MIC [15]: 1 µg/mL (≈ 0.875 µM)
- MIC [16]: >16 µg/mL
- MIC (K. Pneumoniae GMCH13): 0.5 µg/mL (≈ 0.437 µM)
- MIC (K. Pneumoniae GMCH11): 1 µg/mL (≈ 0.875 µM)
